Earlier results, collected in EP0983068B1, “THE USE OF 1,2,4-TRIAZOLO 1,5-c]PYRIMIDINE HETEROCYCLIC ANALOGUES FOR THE PREPARATION OF MEDICAMENTS USEFUL FOR THE TREATMENT OF CEREBROVASCULAR DISTURBANCES” (SCHERING-PLOUGH S.p.A., priority 1997, dated 1998).

Test system: cerebral ischemia
Settings: Life Sciences, 55, 61-65, 1994; Brain Research 705, 79-84, 1995

## CP66713
  effect in cerebral ischemia animal models: act favourably
